Test results: PubChem BioAssay AID1963851 (Molecular Pharmacology Branch, DTP, NCI, 2024)

System: 188146-221-R-J1-PDC complex spheroid viability
Assay: Anticancer human tumor 188146-221-R-J1-PDC patient-derived colon adenocarcinoma cell line growth inhibition [POLQ]
Conditions: for IC50: curve of first compound; for viability, T/C: stronger effect = lower value
Procedure, shortened: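 Growth inhibition in 3D: complex spheroids (tumor PDC, HUVEC, MSC) treated with POLQ inhibitor combinations; where Cmax unknown, highest tested concentration 10 microM, except SN-38 at 1 microM.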

[1] = second compound 0.0316 µM, first compound 0.0316 µM
[2] = second compound 0.0316 µM, first compound 0.1 µM
[3] = second compound 0.0316 µM, first compound 0.316 µM
[4] = second compound 0.0316 µM, first compound 1 µM
[5] = second compound 0.0316 µM, first compound 3.16 µM
[6] = second compound 0.0316 µM, first compound 10 µM
[7] = second compound 0.1 µM, first compound 0.0316 µM
[8] = second compound 0.1 µM, first compound 0.1 µM
[9] = second compound 0.1 µM, first compound 0.316 µM
[10] = second compound 0.1 µM, first compound 1 µM
[11] = second compound 0.1 µM, first compound 3.16 µM
[12] = second compound 0.1 µM, first compound 10 µM
[13] = second compound 0.316 µM, first compound 0.0316 µM
[14] = second compound 0.316 µM, first compound 0.1 µM
[15] = second compound 0.316 µM, first compound 0.316 µM
[16] = second compound 0.316 µM, first compound 1 µM
[17] = second compound 0.316 µM, first compound 3.16 µM
[18] = second compound 0.316 µM, first compound 10 µM
[19] = second compound 1 µM, first compound 0.0316 µM
[20] = second compound 1 µM, first compound 0.1 µM
[21] = second compound 1 µM, first compound 0.316 µM
[22] = second compound 1 µM, first compound 1 µM
[23] = second compound 1 µM, first compound 3.16 µM
[24] = second compound 1 µM, first compound 10 µM
[25] = second compound 3.16 µM, first compound 0.0316 µM
[26] = second compound 3.16 µM, first compound 0.1 µM
[27] = second compound 3.16 µM, first compound 0.316 µM
[28] = second compound 3.16 µM, first compound 1 µM
[29] = second compound 3.16 µM, first compound 3.16 µM
[30] = second compound 3.16 µM, first compound 10 µM
[31] = second compound 10 µM, first compound 0.0316 µM
[32] = second compound 10 µM, first compound 0.1 µM
[33] = second compound 10 µM, first compound 0.316 µM
[34] = second compound 10 µM, first compound 1 µM
[35] = second compound 10 µM, first compound 3.16 µM
[36] = second compound 10 µM, first compound 10 µM
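Also: spheroids exposed to compounds for seven days.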
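For viability, T/C in this document: 100% = DMSO vehicle control viability.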

CCc1cc2c(N3CCc4c(cc(Cn5ccnc5)cc4-c4cn(C)nc4C(F)(F)F)C3=O)cc(C)nc2c(OC)n1 + Nc1ccc(C#CCN(C(=O)Cc2ncc(C(F)(F)F)cc2C(F)(F)F)c2ccc(F)cc2)nn1
IC50 (second compound 0.0316 µM): 8.54 µM | IC50 (second compound 0.1 µM): 7.95 µM | IC50 (second compound 0.316 µM): 6.94 µM | IC50 (second compound 1 µM): > 10 µM | IC50 (second compound 3.16 µM): 7.01 µM | IC50 (second compound 10 µM): 8.08 µM | viability, T/C [1]: 89.1% | viability, T/C [2]: 101% | viability, T/C [3]: 74.4% | viability, T/C [4]: 85.7% | viability, T/C [5]: 71.2% | viability, T/C [6]: 46.3% | viability, T/C [7]: 119% | viability, T/C [8]: 101% | viability, T/C [9]: 103% | viability, T/C [10]: 95% | viability, T/C [11]: 66% | viability, T/C [12]: 46% | viability, T/C [13]: 120% | viability, T/C [14]: 101% | viability, T/C [15]: 94% | viability, T/C [16]: 103% | viability, T/C [17]: 66.1% | viability, T/C [18]: 40.8% | viability, T/C [19]: 107% | viability, T/C [20]: 96.3% | viability, T/C [21]: 104% | viability, T/C [22]: 95.2% | viability, T/C [23]: 85.5% | viability, T/C [24]: 50.4% | viability, T/C [25]: 111% | viability, T/C [26]: 115% | viability, T/C [27]: 109% | viability, T/C [28]: 85.8% | viability, T/C [29]: 68.8% | viability, T/C [30]: 42.1% | viability, T/C [31]: 93.7% | viability, T/C [32]: 102% | viability, T/C [33]: 99% | viability, T/C [34]: 84.8% | viability, T/C [35]: 69.5% | viability, T/C [36]: 45.6%

COc1cc2cc(C(=O)CCC(=O)O)sc2cc1OC + Nc1ccc(C#CCN(C(=O)Cc2ncc(C(F)(F)F)cc2C(F)(F)F)c2ccc(F)cc2)nn1
IC50 (second compound 0.0316 µM): > 10 µM | IC50 (second compound 0.1 µM): > 10 µM | IC50 (second compound 0.316 µM): > 10 µM | IC50 (second compound 1 µM): > 10 µM | IC50 (second compound 3.16 µM): > 10 µM | IC50 (second compound 10 µM): > 10 µM | viability, T/C [1]: 115% | viability, T/C [2]: 102% | viability, T/C [3]: 96.4% | viability, T/C [4]: 119% | viability, T/C [5]: 90.2% | viability, T/C [6]: 105% | viability, T/C [7]: 105% | viability, T/C [8]: 115% | viability, T/C [9]: 107% | viability, T/C [10]: 96.2% | viability, T/C [11]: 118% | viability, T/C [12]: 102% | viability, T/C [13]: 109% | viability, T/C [14]: 100% | viability, T/C [15]: 89.3% | viability, T/C [16]: 107% | viability, T/C [17]: 107% | viability, T/C [18]: 97.4% | viability, T/C [19]: 117% | viability, T/C [20]: 116% | viability, T/C [21]: 106% | viability, T/C [22]: 96.3% | viability, T/C [23]: 104% | viability, T/C [24]: 102% | viability, T/C [25]: 105% | viability, T/C [26]: 114% | viability, T/C [27]: 96.8% | viability, T/C [28]: 119% | viability, T/C [29]: 109% | viability, T/C [30]: 118% | viability, T/C [31]: 101% | viability, T/C [32]: 130% | viability, T/C [33]: 98.5% | viability, T/C [34]: 113% | viability, T/C [35]: 104% | viability, T/C [36]: 120%

COc1ccc([C@@H](O)c2cc(-c3ncnc4cc(N5CCOCC5)ccc34)c(F)cc2Cl)nn1 + Nc1ccc(C#CCN(C(=O)Cc2ncc(C(F)(F)F)cc2C(F)(F)F)c2ccc(F)cc2)nn1
IC50 (second compound 0.0316 µM): 6.82 µM | IC50 (second compound 0.1 µM): 6.9 µM | IC50 (second compound 0.316 µM): > 10 µM | IC50 (second compound 1 µM): 8.15 µM | IC50 (second compound 3.16 µM): 7.39 µM | IC50 (second compound 10 µM): 6.86 µM | viability, T/C [1]: 103% | viability, T/C [2]: 118% | viability, T/C [3]: 96.6% | viability, T/C [4]: 87.6% | viability, T/C [5]: 65.1% | viability, T/C [6]: 42.5% | viability, T/C [7]: 109% | viability, T/C [8]: 91.3% | viability, T/C [9]: 91.1% | viability, T/C [10]: 83.9% | viability, T/C [11]: 74.1% | viability, T/C [12]: 39% | viability, T/C [13]: 122% | viability, T/C [14]: 95.3% | viability, T/C [15]: 95.5% | viability, T/C [16]: 83.6% | viability, T/C [17]: 82.5% | viability, T/C [18]: 44.5% | viability, T/C [19]: 103% | viability, T/C [20]: 96.8% | viability, T/C [21]: 91.9% | viability, T/C [22]: 87.2% | viability, T/C [23]: 69.8% | viability, T/C [24]: 45.3% | viability, T/C [25]: 104% | viability, T/C [26]: 102% | viability, T/C [27]: 110% | viability, T/C [28]: 97.6% | viability, T/C [29]: 81.7% | viability, T/C [30]: 38.8% | viability, T/C [31]: 102% | viability, T/C [32]: 104% | viability, T/C [33]: 103% | viability, T/C [34]: 91.6% | viability, T/C [35]: 63.9% | viability, T/C [36]: 43.3%

O=C(Nc1ccc(O)c(NS(=O)(=O)c2ccc(F)cc2)c1)c1ccc(-c2ccccc2)cc1 + Nc1ccc(C#CCN(C(=O)Cc2ncc(C(F)(F)F)cc2C(F)(F)F)c2ccc(F)cc2)nn1
IC50 (second compound 0.0316 µM): > 10 µM | IC50 (second compound 0.1 µM): > 10 µM | IC50 (second compound 0.316 µM): > 10 µM | IC50 (second compound 1 µM): > 10 µM | IC50 (second compound 3.16 µM): > 10 µM | IC50 (second compound 10 µM): > 10 µM | viability, T/C [1]: 104% | viability, T/C [2]: 100% | viability, T/C [3]: 88% | viability, T/C [4]: 109% | viability, T/C [5]: 92.7% | viability, T/C [6]: 72% | viability, T/C [7]: 105% | viability, T/C [8]: 119% | viability, T/C [9]: 109% | viability, T/C [10]: 104% | viability, T/C [11]: 88.9% | viability, T/C [12]: 63.6% | viability, T/C [13]: 119% | viability, T/C [14]: 100% | viability, T/C [15]: 93.5% | viability, T/C [16]: 92% | viability, T/C [17]: 93.6% | viability, T/C [18]: 60.1% | viability, T/C [19]: 124% | viability, T/C [20]: 112% | viability, T/C [21]: 108% | viability, T/C [22]: 79.7% | viability, T/C [23]: 97.8% | viability, T/C [24]: 73.2% | viability, T/C [25]: 111% | viability, T/C [26]: 110% | viability, T/C [27]: 118% | viability, T/C [28]: 99.9% | viability, T/C [29]: 107% | viability, T/C [30]: 60.1% | viability, T/C [31]: 111% | viability, T/C [32]: 118% | viability, T/C [33]: 110% | viability, T/C [34]: 99.1% | viability, T/C [35]: 110% | viability, T/C [36]: 68.6%
